These results are taken from US20250213644A1, “COMPOSITIONS AND METHODS FOR TREATMENT OF BONE-RELATED DISEASE OR DISORDER” (priority 2021, published 2025).

In one assay the test system is OVX-induced bone loss. Briefly: Rescue of OVX-induced bone loss, μCT of femora. Type of assay: in vivo, mouse.
The next assay concerns human osteoblasts. The experiment in a line: Human osteoblast proliferation assay with or without SR144528. As to conditions: with CB2-selective antagonist SR144528.
A further assay deals with age-related bone loss. Briefly: Prevention of age-related bone loss in male mice, μCT. Type of assay: in vivo, mouse. As to conditions: male mice treated from 3 to 6 months of age.
For assay [1], the system named is Ti particle-induced osteolysis. The experiment in a line: Calvarial osteolysis model, Ti particle-induced osteolysis, μCT. In kind it is in vivo, mouse. The conditions noted are these: fibrin membranes with Ti particles loaded with 10^−11M 5aa-OGP on mice calvaria; 4 weeks post-op. An excerpt: FIGS. 5A-5C show the effect of topically administered 5aa-OGP on Ti particle-induced osteolysis in vivo: Fibrin membranes including titanium particles derived from sand-blasted Ti implants, with 5aa-OGP (TiP+5aa-OGP) or with saline (TiP) were implanted onto mice calvaria. Membranes with no TiP were inserted in the control group. Mice were sacrificed 4 weeks post-op. and subjected to CT analysis. FIG. 5A—Pit Resorption Volume over total volume (PR.V/TV), FIG. 5B—Bone volume in the region of interest, chiefly representing the calvarial thickness), and FIG. 5C—Representative CT images of the calvaria. Data are expressed as mean±SD (n=4). *p<0.05 vs. Titanium.
Calvarial Osteolysis Model. To test the direct effect of Ti particles on inflammation-induced osteolysis in vivo, a mouse calvaria model and μCT analysis specifically designed in our laboratory was used. […]
μCT analysis—All specimens were scanned and analyzed using a μCT system (CT 50, Scanco Medical AG, Switzerland). […]
A custom-made algorithm based on Image-Processing Language (IPL, Scanco Medical) was developed to isolate the resorption pits, defined as unmineralized pits that were […] deep on the bone surface. The measured resorption volume was limited to a […] depth because beyond that, the resorption pit was connected to the internal diploe. […]

Assay [2] has as its system New-born mouse calvarial osteoblasts. The experiment in a line: Osteoblast proliferation assay (cell counts), WT and CB2−/− mouse-derived cultures.
For a further assay, the target named is CB2 (Homo sapiens, UniProt P34972). As to conditions: increasing concentrations of 5aa-OGP; CHO-CB2-derived membranes.
The subject of another assay is newly formed bone. As to conditions: rats, after 6 to 8 weeks of treatment; cited from earlier work.
The mark [3] stands for this setting: WT OVX mice, 10 ng/day s.c. for 6 weeks.
Setting [4] is: mouse-derived osteoblast cultures, 48-hour incubation.

Chain of CB2 (P34972 whole entry): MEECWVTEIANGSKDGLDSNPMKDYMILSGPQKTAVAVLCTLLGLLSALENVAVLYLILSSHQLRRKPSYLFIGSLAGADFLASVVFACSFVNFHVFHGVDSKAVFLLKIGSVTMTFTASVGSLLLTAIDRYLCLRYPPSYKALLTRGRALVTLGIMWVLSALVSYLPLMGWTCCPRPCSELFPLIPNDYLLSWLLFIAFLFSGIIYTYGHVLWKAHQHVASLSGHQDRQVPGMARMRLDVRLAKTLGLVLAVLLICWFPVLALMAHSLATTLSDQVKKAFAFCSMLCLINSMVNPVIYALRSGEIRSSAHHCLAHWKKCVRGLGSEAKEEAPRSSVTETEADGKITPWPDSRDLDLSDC

Take YGFGG (listed as Homo sp.) [5aa-OGP]: in the assay with OVX-induced bone loss (OVX CB2−/− animals, 10 ng/day s.c. for 6 weeks), the “Any of the measured bone parameters” value is on record as “no effect”. Also, in the assay on OVX-induced bone loss (setting [3]), the Cortical bone parameters entry is “did not affect”, the “Trabecular number (Tb.N)” value was “significant increases”, the “Trabecular thickness (Tb.Th)” value was “significant increases” and the “Trabecular volumetric bone mineral density (vBMD)” value is on record as “significant increases”. Also, the “Trabecular bone volume fraction (BV/TV), change vs. OVX, VEH-treated mice” value with OVX-induced bone loss (WT OVX mice, 10 ng/day s.c. once a day for 6 weeks, starting 6 weeks post-OVX, p=0.035) is “+45.9%”. Further, the “Proliferative effect in human osteoblasts” value with human osteoblasts is “abrogated”. In the assay on age-related bone loss, the Trabecular connectivity density entry was “significantly increased”, the Trabecular number result was “significantly increased” and the Trabecular thickness entry is listed as “significantly increased”. In assay [1], the “Bone volume in the calvaria (region of interest)” value is “increased bone volume” and the “Ti particle-induced osteolysis (Pit Resorption Volume over total volume, PR.V/TV)” value is listed as “completely prevented this bone loss”. In addition, the Osteoblastic proliferative activity result in assay [2] (CB2−/−-derived murine osteoblasts (genetic ablation of CB2)) was “completely abrogated”. Moreover, the Osteoblastic proliferative activity entry in assay [2] (setting [4]) was “nearly an identical dose response relationship”. Besides, the “Displacement of tritiated CP55,940” value with CB2 is “did not displace CP55,940”.

`C=C(C)[C@@H]1CCC(C)=C[C@H]1c1c(O)cc(CCCCC)cc1O` [CBD, Cannabidiol]: in the assay on newly formed bone, the “Quality and biomechanical properties (e.g. bone strength) of the newly formed bone” value is given as “enhanced”.

For the compound `CCCCCCC(C)(C)c1cc(OC)c(C2=C[C@H]3CC[C@]2(CO)C3(C)C)c(OC)c1` [HU-910, reference compound], the “Proliferative effect in human osteoblasts” value in the assay with human osteoblasts is “abrogated”. Besides, the Osteoblastic proliferative activity result in assay [2] (setting [4]) is “nearly an identical dose response relationship”.
